The source of these data is patent publication US10385069B2, “Imidazo[2,1-B]thiazole and 5,6-dihydroimidazo[2,1-B]thiazole derivatives useful as S100-inhibitors” (Active Biotech AB, priority 2015, dated 2019).

pIC50: −log10 of the molar value.

For the test, the target named is T1, interaction between biotinylated human S100A9 and human RAGE-Fc (Homo sapiens, UniProt P06702).
T1 construct: made in house; host or cells: E. coli
T1 sequence (P06702 1-114): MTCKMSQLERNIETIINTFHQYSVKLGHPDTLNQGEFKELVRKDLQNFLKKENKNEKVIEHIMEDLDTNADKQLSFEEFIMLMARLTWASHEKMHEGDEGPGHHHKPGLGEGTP
As to the kind of experiment: AlphaScreen inhibition assay, biot-hS100A9:hRAGE-Fc. In kind it is binding. The note with it: biot-hS100A9 pre-incubated with compound 1 h, assay buffer with CaCl2 and ZnCl2. The text has this:
Inhibition Assay, Biot-hS100A9:hRAGE-Fc
The AlphaScreen (Amplified Luminescent Proximity Homogeneous Assay) contains two types of beads, Alpha Donor beads and Acceptor beads (PerkinElmer). Upon laser excitation at 680 nm a photosensitizer in the Donor bead converts ambient oxygen to a more excited singlet state. The singlet oxygen molecule diffuses (maximum 200 nm) to react with a thioxene derivative in the Acceptor bead and generates a chemiluminescence reaction. Fluorophores in the Acceptor bead subsequently emit light at 520-620 nm which can be detected in the EnVision® Multilabel plate Reader (PerkinElmer). The beads are light sensitive and all work with the beads is performed under subdued light conditions or using green filters on light sources (Roscolux Chroma Green #389, Rosco).
In the AlphaScreen Inhibition Assay described here, protein A (Staphylococcus aureus) conjugated Acceptor beads are used together with streptavidin coated Donor beads (Perkin Elmer 6760617M). The Acceptor beads are pre-incubated with Fc-tagged recombinant human RAGE (rhRAGE-Fc) allowing binding of the rhRAGE-Fc to protein A on the beads. Biotinylated human S100A9 (biot-hS100A9) is pre-incubated with the low molecular test compounds. The pre-mixes are then added to the wells of a micro-plate and incubated allowing interaction between biot-hS100A9 and rhRAGE-Fc. Subsequent addition of streptavidin coated Donor beads causes binding of the streptavidin to the biotinylated hS100A9. After an additional incubation the signal is measured.
Without inhibitory compounds, the interaction of biot-hS100A9 to rhRAGE-Fc will bring the Acceptor and Donor beads in close proximity thus generating a high signal. With an inhibitor present the complex will not form resulting in a decreased signal. The assay is illustrated in FIG. 1.
Chemicals and Reagents. • AlphaScreen® General IgG (Protein A) Detection Kit, (PerkinElmer 6760617M) • HBS-P buffer (GE Healthcare, BR-1003-68) • HBS-N buffer (GE Healthcare, BR-1003-69) • CaCl2 in HBS-P • ZnCl2 in Milli-Q water • DMSO • Biotinylated hS100A9, (biotinylated via cystein by EZ-link Iodoacetyl-PEG2-Biotin reagent (Pierce no. 21334), in HBS-N • rhRAGE-Fc (R&D Systems, 1145-RG-50), in HBS-P
The AlphaScreen assay method is used for screening of the inhibitory effect of different compound samples at fixed concentrations or for IC50 determination by varying the compound concentrations. Samples of test compounds and references are prepared from solutions in DMSO. Relevant reference inhibitors and DMSO are used as controls for defined inhibition and non-inhibition, respectively in the assay. The percent inhibition in assay for test compounds and references are calculated by comparing their obtained assay signals with the signal values for the control with only DMSO (no compound).
Assay concentration of biotinylated hS100A9 and rhRAGE-Fc are batch dependent, and are determined and defined by separate cross-titration experiments using this AlphaScreen inhibition method to verify the optimal setup regarding signal strength and achievement of a defined inhibition with relevant reference compounds. The Final assay concentrations of Acceptor and Donor beads are 20 μg/mL.
Assay buffer is prepared by adding CaCl2 and ZnCl2 to HBS-P and is used freshly prepared in the experiment.
Biotin-hS100A9 solution for the experiment is prepared by dilution of appropriate amount of stock solution biot-hS100A9 in assay buffer (with CaCl2 and ZnCl2) and incubation in room temperature for 30 minutes.
rhRAGE-Fc solution for the experiment is prepared by dilution appropriate amount of rhRAGE-Fc stock in assay buffer.
Protein A Acceptor beads are diluted in assay buffer and are added to an equal volume of the prepared diluted rhRAGE-Fc solution. The beads are light sensitive. The vial is covered with aluminum foil and incubated at room temperature in the dark until biot-hS100A9+compound incubation is finished (see below). […]
Background: In Alpha technology, singlet oxygen from a donor bead excites a nearby acceptor bead.

Consider `CCN(CC)CCCS(=O)(=O)NC(=O)c1cn2c3c(sc2n1)C(C)(C)CC(C)(C)C3` [Example 54, N-[3-(Diethylamino)propanesulfonyl]-9,9,11,11-tetramethyl-7-thia-2,5-diazatricyclo[6.4.0.0^2,6]dodeca-1(8),3,5-triene-4-carboxamide], for which the negative-log IC50 (pIC50) was 5.87.

For the compound `CC1(C)Cc2c(sc3nc(C(=O)NS(=O)(=O)CCCN4CCOCC4)cn23)C(C)(C)C1` [Example 55, 9,9,11,11-Tetramethyl-N-[3-(morpholin-4-yl)propanesulfonyl]-7-thia-2,5-diazatricyclo[6.4.0.0^2,6]dodeca-1(8),3,5-triene-4-carboxamide], the pIC50 is 6.26.

For `CC1(C)CCc2sc3nc(C(=O)NS(=O)(=O)CC(F)(F)F)cn3c2C1` [Example 57, 11,11-Dimethyl-N-(2,2,2-trifluoroethanesulfonyl)-7-thia-2,5-diazatricyclo[6.4.0.0^2,6]dodeca-1(8),3,5-triene-4-carboxamide], the pIC50 is 6.13.

With `CC(C)(C)C1CCc2c(sc3nc(C(=O)NC#N)cn23)C1` (stereo not shown) [Example 58, 10-tert-Butyl-N-cyano-7-thia-2,5-diazatricyclo[6.4.0.0^2,6]dodeca-1(8),3,5-triene-4-carboxamide], the negative-log IC50 (pIC50) was 6.19.

For `O=C(O)C1CN2C(=N1)Sc1c2ccc(Cl)c1Cl` (stereo not shown) [Example 185, 9,10-Dichloro-7-thia-2,5-diazatricyclo[6.4.0.0^2,6]dodeca-1(8),5,9,11-tetraene-4-carboxylic acid], the pIC50 was 6.35.

Regarding `O=C(O)C(O)c1cn2c(n1)sc1c(Cl)c(Cl)ccc12` (stereo not shown) [Example 188, 2-{9,10-Dichloro-7-thia-2,5-diazatricyclo[6.4.0.0^2,6]dodeca-1(8),3,5,9,11-pentaen-4-yl}-2-hydroxyacetic acid], the pIC50 is 5.66.

Regarding `COc1ccc(-c2c(C(=O)O)nc3sc4c(n23)CCC(C(C)(C)C)C4)cc1` (stereo not shown) [Example 190, 10-tert-Butyl-3-(4-methoxyphenyl)-7-thia-2,5-diazatricyclo[6.4.0.0^2,6]dodeca-1(8),3,5-triene-4-carboxylic acid], the pIC50 was 5.77.

Regarding `Cc1c(C(=O)O)nc2sc3c(n12)CCC(C(C)(C)C)C3` (stereo not shown) [Example 195, 10-tert-Butyl-3-methyl-7-thia-2,5-diazatricyclo[6.4.0.0^2,6]dodeca-1(8),3,5-triene-4-carboxylic acid], the pIC50 was 6.62.

For `CC(C)(C)C1CCc2c(sc3nc(C(=O)O)c(NS(C)(=O)=O)n23)C1` (stereo not shown) [Example 196, 10-tert-Butyl-3-methanesulfonamido-7-thia-2,5-diazatricyclo[6.4.0.0^2,6]dodeca-1(8),3,5-triene-4-carboxylic acid], the pIC50 is 6.31.

As for `O=C(O)c1cn2c(n1)sc1c(Cl)ccc(Cl)c12` [Example 197, 9,12-Dichloro-7-thia-2,5-diazatricyclo[6.4.0.0^2,6]dodeca-1(8),3,5,9,11-pentaene-4-carboxylic acid], the pIC50 was 5.84.

`O=C(O)c1cn2c(n1)sc1c(OC(F)(F)F)cccc12` [Example 198, 9-(Trifluoromethoxy)-7-thia-2,5-diazatricyclo[6.4.0.0^2,6]dodeca-1(8),3,5,9,11-pentaene-4-carboxylic acid]: the negative logarithm of the IC50 (pIC50) is 5.81.

For `CC1(C)Cc2c(sc3nc(C(=O)O)c(I)n23)C(C)(C)C1` [Example 199, 3-Iodo-9,9,11,11-tetramethyl-7-thia-2,5-diazatricyclo[6.4.0.0^2,6]dodeca-1(8),3,5-triene-4-carboxylic acid], the pIC50 is 6.28.

With `O=C(O)c1cn2c(n1)sc1cc(SC(F)(F)F)ccc12` [Example 201, 10-[(Trifluoromethyl)sulfanyl]-7-thia-2,5-diazatricyclo[6.4.0.0^2,6]dodeca-1(8),3,5,9,11-pentaene-4-carboxylic acid], the pIC50 is 5.83.

As to `CN(C)Cc1c(C(=O)O)nc2sc3c(Cl)c(Cl)ccc3n12` [Example 203, 9,10-Dichloro-3-[(dimethylamino)methyl]-7-thia-2,5-diazatricyclo[6.4.0.0^2,6]dodeca-1(8),3,5,9,11-pentaene-4-carboxylic acid], the negative-log IC50 (pIC50) was 6.11.

In the case of `O=C(O)c1cn2c(n1)sc1c(Cl)cc(Cl)cc12` [Example 204, 9,11-Dichloro-7-thia-2,5-diazatricyclo[6.4.0.0^2,6]dodeca-1(8),3,5,9,11-pentaene-4-carboxylic acid], the negative logarithm of the IC50 (pIC50) was 6.03.

For `CC(C)(C)c1ccc2c(c1)sc1nc(C(=O)O)cn12` [Example 206, 10-tert-Butyl-7-thia-2,5-diazatricyclo[6.4.0.0^2,6]dodeca-1(8),3,5,9,11-pentaene-4-carboxylic acid], the pIC50 is 6.02.

As for `CC1(C)Cc2c(sc3nc(C(=O)O)c(Cl)n23)C(C)(C)C1` [Example 207, 3-Chloro-9,9,11,11-tetramethyl-7-thia-2,5-diazatricyclo[6.4.0.0^2,6]dodeca-1(8),3,5-triene-4-carboxylic acid], the pIC50 is 6.11.

Take `O=C(O)c1cn2c(n1)sc1cc(OCc3ccccc3)ccc12` [Example 208, 10-(Benzyloxy)-7-thia-2,5-diazatricyclo[6.4.0.0^2,6]dodeca-1(8),3,5,9,11-pentaene-4-carboxylic acid]: the negative logarithm of the IC50 (pIC50) was 5.65.

Take `O=C(O)c1cn2c(n1)sc1c(F)c(F)ccc12` [Example 209, 9,10-Difluoro-7-thia-2,5-diazatricyclo[6.4.0.0^2,6]dodeca-1(8),3,5,9,11-pentaene-4-carboxylic acid]: the pIC50 was 5.99.

As for `O=C(O)c1cn2c(n1)sc1c(Br)cccc12` [Example 212, 9-Bromo-7-thia-2,5-diazatricyclo[6.4.0.0^2,6]dodeca-1(8),3,5,9,11-pentaene-4-carboxylic acid], the pIC50 was 6.15.

As to `O=C(O)c1cn2c(n1)sc1c(Cl)c(OC(F)(F)F)ccc12` [Example 214, 9-Chloro-10-(trifluoromethoxy)-7-thia-2,5-diazatricyclo[6.4.0.0^2,6]dodeca-1(8),3,5,9,11-pentaene-4-carboxylic acid], the pIC50 is 6.19.

In the case of `COc1c(Cl)ccc2c1sc1nc(C(=O)O)cn12` [Example 217, 10-Chloro-9-methoxy-7-thia-2,5-diazatricyclo[6.4.0.0^2,6]dodeca-1(8),3,5,9,11-pentaene-4-carboxylic acid], the negative logarithm of the IC50 (pIC50) is 5.96.

With `COc1ccc2c(sc3nc(C(=O)O)cn32)c1Cl` [Example 218, 9-Chloro-10-methoxy-7-thia-2,5-diazatricyclo[6.4.0.0^2,6]dodeca-1(8),3,5,9,11-pentaene-4-carboxylic acid], the pIC50 is 5.80.

As for `CS(=O)(=O)NC(=O)c1cn2c(n1)sc1c(Cl)c(OC(F)(F)F)ccc12` [Example 220, 9-Chloro-N-methanesulfonyl-10-(trifluoromethoxy)-7-thia-2,5-diazatricyclo[6.4.0.0^2,6]dodeca-1(8),3,5,9,11-pentaene-4-carboxamide], the pIC50 was 6.11.

With `CC1(C)Cc2c(sc3nc(C(=O)O)c(Br)n23)C(C)(C)C1` [Example 222, 3-Bromo-9,9,11,11-tetramethyl-7-thia-2,5-diazatricyclo[6.4.0.0^2,6]dodeca-1(8),3,5-triene-4-carboxylic acid], the pIC50 was 6.16.

A word on the pIC50: it is the IC50 on a negative log10 scale, so that one unit is a factor of ten.
